The source of these data is the supplement of paper PMC12137928.

Structures can show the parent of a compound that is named as a salt.

For test [1], the system named is HCT116. The test can be described thus: efficacy (maximum % inhibition of viability vs DMSO); higher = more cytotoxic. The note with it: 72 h. An outline of the steps: (§1)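 HCT116 cells were seeded at 250 per well in 1536-well plates with 5 h allowed for attachment. CellTiter-Glo luminescence was normalized against vehicle (0%) and positive control (-100%) before pattern correction. The IC50 and maximal efficacy figures derive from four-parameter Hill fits.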

Test [2] concerns HCT116. Conditions: 72 h. An outline of the steps:
as §1

For the molecule `CC(C)(C)NC[C@H](O)COc1ccccc1C1CCCC1` [Penbutolol sulfate], the efficacy in test [1] (ICRF193 200 nM) is 50%. Further, the IC50 cell viability was over 45.8 µM in test [2] (ICRF193 0 nM) and 20.6 µM in test [2] (ICRF193 200 nM).

As for `C=C1/C(=C\C=C2/CCC[C@]3(C)[C@@H]([C@H](C)CC[C@@H](O)C(C)C)CC[C@@H]23)C[C@@H](O)C[C@@H]1O` [Tacalcitol], the values for the efficacy in test [1] (ICRF193 0 nM) and in test [1] (ICRF193 200 nM) were 49.2% and 53.2%, respectively. The values for the IC50 cell viability in test [2] (ICRF193 0 nM) and in test [2] (ICRF193 200 nM) were 23.1 µM and 20.6 µM, respectively.

As for `COc1ccc(CCN2CCC(Nc3nc4ccccc4n3Cc3ccc(F)cc3)CC2)cc1` [Astemizole], the values for the efficacy in test [1] (ICRF193 0 nM) and in test [1] (ICRF193 200 nM) were 108% and 102%, respectively. Also, the IC50 cell viability in test [2] (ICRF193 0 nM) amounted to 20.6 µM; in test [2] (ICRF193 200 nM) it was 16.4 µM.

Take `C=CC(=O)N1CCC[C@@H](n2nc(-c3ccc(Oc4ccccc4)cc3)c3c(N)ncnc32)C1`: the efficacy in test [1] (ICRF193 0 nM) turned out to be 47.6%; in test [1] (ICRF193 200 nM) it was 72.8%. Besides, the values for the IC50 cell viability in test [2] (ICRF193 0 nM) and in test [2] (ICRF193 200 nM) were 23.1 µM and 29.1 µM, respectively.

Consider `COc1ccc(CN2CCN(C(c3ccc(F)cc3)c3ccc(F)cc3)CC2)c(OC)c1OC` [Lomerizine dihydrochloride], for which the values for the efficacy in test [1] (ICRF193 0 nM) and in test [1] (ICRF193 200 nM) were 130% and 104%, respectively. In addition, the figures for the IC50 cell viability in test [2] (ICRF193 0 nM) and in test [2] (ICRF193 200 nM) were 20.6 µM and 23.1 µM, respectively.

For `CCOC(=O)Cn1cccc1-c1nc(-c2ccc(OC)cc2)c(-c2ccc(OC)cc2)s1` [Pamicogrel], the efficacy in test [1] (ICRF193 0 nM) amounted to 89.1%; in test [1] (ICRF193 200 nM), 86.7%. The IC50 cell viability in test [2] (ICRF193 0 nM) was determined as 5.8 µM; in test [2] (ICRF193 200 nM), 5.17 µM.

Consider `CCN(CC)c1ccc(C(=C2C=CC(=[N+](CC)CC)C=C2)c2cc(S(=O)(=O)O)ccc2S(=O)(=O)[O-])cc1` [Isosulfan blue], for which the efficacy in test [1] (ICRF193 0 nM) worked out at 76.5%; in test [1] (ICRF193 200 nM), 78.9%. In addition, the values for the IC50 cell viability in test [2] (ICRF193 0 nM) and in test [2] (ICRF193 200 nM) were 29.1 µM and 18.3 µM, respectively.

On to `Cc1c2oc3c(C)ccc(C(=O)N[C@@H]4C(=O)N[C@H](C(C)C)C(=O)N5CCC[C@H]5C(=O)N(C)CC(=O)N(C)[C@@H](C(C)C)C(=O)O[C@@H]4C)c3nc-2c(C(=O)N[C@@H]2C(=O)N[C@H](C(C)C)C(=O)N3CCC[C@H]3C(=O)N(C)CC(=O)N(C)[C@@H](C(C)C)C(=O)O[C@@H]2C)c(N)c1=O` [Actinomycin D], for which the values for the efficacy in test [1] (ICRF193 0 nM) and in test [1] (ICRF193 200 nM) were 48.1% and 79.3%, respectively. Besides, the IC50 cell viability in test [2] (ICRF193 0 nM) came out at 0.0164 µM; in test [2] (ICRF193 200 nM) it was 0.0206 µM.

In the case of `O=C1Nc2ccc(Cl)cc2[C@@](C#CC2CC2)(C(F)(F)F)O1` [Efavirenz], the efficacy in test [1] (ICRF193 0 nM) stood at 56.7%; in test [1] (ICRF193 200 nM) it was 44.6%. Also, the IC50 cell viability in test [2] (ICRF193 0 nM) turned out to be 20.6 µM; in test [2] (ICRF193 200 nM) it was 25.9 µM.

Turning to `CN(Cc1cnc2nc(N)nc(N)c2n1)c1ccc(C(=O)N[C@@H](CCC(=O)O)C(=O)O)cc1` [Methotrexate], the values for the efficacy in test [1] (ICRF193 0 nM) and in test [1] (ICRF193 200 nM) were 91.8% and 93.9%, respectively. The IC50 cell viability in test [2] (ICRF193 0 nM) and in test [2] (ICRF193 200 nM) was 0.146 µM each time.

`CCCCC(=O)O[C@H]1CC[C@H]2[C@@H]3CCc4cc(O)ccc4[C@H]3CC[C@]12C` [Estradiol valerate]: the efficacy in test [1] (ICRF193 200 nM) was 49.3%. Besides, the IC50 cell viability in test [2] (ICRF193 0 nM) was over 45.8 µM; in test [2] (ICRF193 200 nM) it was 20.6 µM.

Consider `C=C1C(=O)O[C@H]2[C@H]1CC/C(C)=C/CC[C@@]1(C)O[C@@H]21` [Parthenolide], for which the efficacy amounted to 93.1% in test [1] (ICRF193 0 nM) and 95.3% in test [1] (ICRF193 200 nM). Besides, the IC50 cell viability in test [2] (ICRF193 0 nM) was found to be 6.51 µM; in test [2] (ICRF193 200 nM), 8.2 µM.

On to `CNCCCCOc1ccccc1Cc1ccccc1` [Bifemelane], for which the efficacy was 40.6% in test [1] (ICRF193 0 nM) and 49.6% in test [1] (ICRF193 200 nM). The IC50 cell viability is 20.6 µM in test [2] (ICRF193 0 nM) and 14.6 µM in test [2] (ICRF193 200 nM).

In the case of `COC(=O)[C@H](c1ccccc1Cl)N1CCc2sccc2C1` [Clopidogrel bisulfate], the efficacy in test [1] (ICRF193 0 nM) is 67.2%; in test [1] (ICRF193 200 nM) it was 76.8%. Besides, the IC50 cell viability turned out to be 18.3 µM in test [2] (ICRF193 0 nM) and 23.1 µM in test [2] (ICRF193 200 nM).

As for `CCCCN(CCCC)CC(O)c1cc(Cl)cc2c1-c1ccc(Cl)cc1/C2=C/c1ccc(Cl)cc1` (stereo unspecified) [Lumefantrine], the efficacy in test [1] (ICRF193 0 nM) came to 120%; in test [1] (ICRF193 200 nM), 113%. Also, the IC50 cell viability in test [2] (ICRF193 0 nM) came out at 23.1 µM; in test [2] (ICRF193 200 nM) it was 18.3 µM.

As for `NC(=O)[C@@H]1CCCN1C(=O)[C@H](Cc1c[nH]cn1)NC(=O)[C@@H]1CCC(=O)N1` [PROTIRELIN], the results for the efficacy in test [1] (ICRF193 0 nM) and in test [1] (ICRF193 200 nM) were 69.8% and 64.8%, respectively. In addition, the results for the IC50 cell viability in test [2] (ICRF193 0 nM) and in test [2] (ICRF193 200 nM) were 29.1 µM and 25.9 µM, respectively.

Turning to `CC(C)c1cc2c(cc1S(=O)(=O)O)[C@@]1(C)CCC[C@@](C)(C(=O)O)[C@@H]1CC2` [Ecabet], the efficacy in test [1] (ICRF193 200 nM) was determined as 63.3%. The IC50 cell viability was over 45.8 µM in test [2] (ICRF193 0 nM) and 0.103 µM in test [2] (ICRF193 200 nM).

For `CCOC(=O)[C@@H](N)Cc1ccc(-c2cc(O[C@H](c3ccc(Cl)cc3-n3ccc(C)n3)C(F)(F)F)nc(N)n2)cc1` [LX1606 (Hippurate)], the efficacy in test [1] (ICRF193 0 nM) was 64.7%; in test [1] (ICRF193 200 nM), 102%. For the same molecule, the IC50 cell viability in test [2] (ICRF193 0 nM) stood at 11.6 µM; in test [2] (ICRF193 200 nM), 16.4 µM.

As to `CC(C)(C)NC(=O)[C@@H]1C[C@@H]2CCCC[C@@H]2CN1C[C@@H](O)[C@H](Cc1ccccc1)NC(=O)[C@H](CC(N)=O)NC(=O)c1ccc2ccccc2n1` [Saquinavir], the efficacy was 84.1% in test [1] (ICRF193 0 nM) and 108% in test [1] (ICRF193 200 nM). Besides, the IC50 cell viability turned out to be 29.1 µM in test [2] (ICRF193 0 nM) and 20.6 µM in test [2] (ICRF193 200 nM).

Regarding `OCCN1CCN(CCCN2c3ccccc3Sc3ccc(C(F)(F)F)cc32)CC1` [Fluphenazine hydrochloride], the efficacy in test [1] (ICRF193 0 nM) came to 110%; in test [1] (ICRF193 200 nM), 104%. Besides, the IC50 cell viability turned out to be 29.1 µM in test [2] (ICRF193 0 nM) and 20.6 µM in test [2] (ICRF193 200 nM).

With `COc1c(C)c2c(c(O)c1C/C=C(\C)CCC(=O)O)C(=O)OC2` [Mycophenolic acid], the figures for the efficacy in test [1] (ICRF193 0 nM) and in test [1] (ICRF193 200 nM) were 70.7% and 92.4%, respectively. Besides, the IC50 cell viability in test [2] (ICRF193 0 nM) was 1.83 µM; in test [2] (ICRF193 200 nM), 2.59 µM.
